Assay results from patent publication US11266147B2, “Fungicidal oxadiazoles” (Bayer Aktiengesellschaft, priority 2017, dated 2022).

Tests used:
[1] = system: Colletotrichum lindemuthianum; assay: Colletotrichum lindemuthianum in vitro cell test; assay type: cell-based; settings: 144 h, liquid culture with spores, 6 days incubation, read-out: efficacy (inhibition of fungal growth); for inhibition at 4 ppm: 4 ppm of active ingredient; for inhibition at 20 ppm: 20 ppm of active ingredient
Method: Example E: Colletotrichum lindemuthianum In Vitro Cell Test • Solvent: DMSO • Culture medium: 14.6 g anhydrous D-glucose (VWR), 7.1 g Mycological Peptone (Oxoid), 1.4 g granulated Yeast Extract (Merck), QSP 1 liter • Inoculum: spores suspension Fungicides were solubilized in DMSO and the solution used to prepare the required range of concentrations. The final concentration of DMSO used in the assay was ≤[…]1%. A spore suspension of C. lindemuthianum was prepared and diluted to the desired spore density. Fungicides were evaluated for their ability to inhibit spores germination and mycelium growth in liquid culture assay. The compounds were added in the desired concentration to the culture medium with spores. After 6 days incubation, fungi-toxicity of compounds was determined by spectrometric measurement of mycelium growth. Inhibition of fungal growth was determined by comparing the absorbance values in wells containing the fungicides with the absorbance in control wells without fungicides.

[2] = LogP by HPLC on reversed phase columns (EEC directive 79/831 Annex V.A8); assay type: physicochemical; settings: method [a]: LC-UV, acidic range, 0.1% formic acid in water and acetonitrile, linear gradient 10% to 95% acetonitrile
Method: [table] If more than one LogP value is available within the same method, all the values are given and separated by “+”. Calibration was done with straight-chain alkan2-ones (with 3 to 16 carbon atoms) with known LogP values (measurement of LogP values using retention times with linear interpolation between successive alkanones). Lambda-max-values were determined using UV-spectra from 200 nm to 400 nm and the peak values of the chromatographic signals.

SMILES | inhibition at 4 ppm [1] [%] | inhibition at 20 ppm [1] [%] | chromatographic logP ([2]; reversed phase HPLC column) | LogP [2]
FC(F)(F)c1nc(-c2cnc(N[C@@H]3CCOc4ccccc43)nc2)no1 [Compound I-01, N-[(4R)-3,4-dihydro-2H-chromen-4-yl]-5-[5-(trifluoromethyl)-1,2,4-oxadiazol-3-yl]pyrimidin-2-amine] | 70 to 79 | 80 to 89 |  | 
Fc1ccccc1Nc1ncc(-c2noc(C(F)(F)F)n2)cn1 [Compound I-04, N-(2-Fluorophenyl)-5-[5-(trifluoromethyl)-1,2,4-oxadiazol-3-yl]pyrimidin-2-amine] | 80 to 89 | 80 to 89 |  | 
FC(F)(F)c1nc(-c2ccc(Nc3ncccn3)cc2)no1 [Compound I-05, N-{4-[5-(trifluoromethyl)-1,2,4-oxadiazol-3-yl]phenyl}pyrimidin-2-amine] | 80 to 89 | 90 to 100 | 3.5 | 
FC1(F)CC(Nc2ncc(-c3noc(C(F)(F)F)n3)cn2)C1 [Compound I-32] |  |  |  | 3.29^[a]
Fc1ccc(Nc2ncc(-c3noc(C(F)(F)F)n3)cn2)cc1 [Compound I-63] |  |  |  | 3.79^[a]
Cc1cccc(Nc2ncc(-c3noc(C(F)(F)Cl)n3)cn2)c1 [Compound I-68] |  |  |  | 4.34^[a]
